Data taken from the METLIN SMRT retention time set (Domingo-Almenara et al. 2019).

Assay: gradient 5% acetonitrile 3 min, to 50% in 2 min, to 85% in 15 min, held 3 min, 100 µL/min
Conditions: column: Zorbax Extend-C18 2.1 x 50 mm; eluents: water / acetonitrile, 0.1% formic acid
Procedure, shortened: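 Each retention time is based on an adduct peak selected computationally and verified by manual inspection. Measurements used HPLC–quadrupole time-of-flight mass spectrometry in positive and negative ionization mode on mixtures of ~100 pure standards. Chromatography ran on a Zorbax Extend-C18 column (2.1 × 50 mm, 1.8 μm) at 100 μL/min with water and acetonitrile, each containing 0.1% formic acid, and dead and dwell volumes of 40 μL and 900 μL.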

Row | Structure (SMILES) | RP-LC retention time
1 | Cc1ccc(O)c(NC(=O)c2nc3nc(C)cc(C(F)F)n3n2)c1 | 762 s
2 | COC(=O)C(NC(=O)N1CC(Cn2c(C)cnc2C2CCOCC2)C1)C(C)C (stereo unspecified) | 600 s
3 | CCC(c1cccs1)N1C(=O)[C@H]2CN(S(=O)(=O)c3ccc(C)c(C)c3)C[C@H]2C1=O (stereo partly specified) | 1070 s
4 | CN1C(=O)c2[nH]nc(-c3ccccc3)c2C1c1ccc(O)cc1 (stereo unspecified) | 670 s
5 | Cc1nc(-c2cccnc2)nc2c1CCC(=O)N2Cc1ccncc1 | 554 s
6 | COc1ccc(S(=O)(=O)N(C)C2CCc3nn(CC4CC4)c(=O)n3CC2)cc1Cl (stereo unspecified) | 810 s
7 | CCCNC(=O)c1cnn(-c2cc(-c3nc(C)no3)ccn2)c1C | 772 s
8 | O=C(Cn1nc2c(SC3CCCCC3)nccn2c1=O)Nc1ccc(Br)cc1F | 1120 s
9 | O=C(NC1CC1)c1ccc(-c2ccsc2)nc1 | 688 s
10 | COc1ccc(CN2CCN(C(=O)CCc3c(C)noc3C)CC2)cn1 | 646 s
11 | CCCn1cc(CCNS(=O)(=O)c2cccc(F)c2)c2cccnc21 | 837 s
12 | O=C(CC1CCOC2(CCN(Cc3ccco3)CC2)C1)NC1CC1 (stereo unspecified) | 573 s
13 | CSCC[C@H](NC(=O)COc1cc(C)cc2oc(=O)c3c(c12)CCC3)C(=O)O | 769 s
14 | CC1(C(=O)N2CCN(c3ccccn3)CC2)CCCCC(=O)N1 (stereo unspecified) | 552 s
15 | COc1ccc(F)c(F)c1C(=O)c1cnc(NC2CCN(S(C)(=O)=O)CC2)nc1N | 784 s
16 | Cc1ccc2[nH]c(C(=O)NC3CC3)c(N3CCCC3=O)c2c1 | 707 s

Row | Structure (SMILES) | RP-LC retention time
17 | CN1CCN(CCCNC(=O)CN2C(=O)C3CCCCN3c3ccc(C(=O)N4CCCC4)cc32)CC1 (stereo unspecified) | 579 s
18 | COc1ccc(-c2nc3nc(C)cc(C)n3c2Nc2ccccc2C)cc1 | 742 s
19 | O=S(=O)(c1ccccc1)N1CCCCC1c1nc(-c2ccccc2)n[nH]1 (stereo unspecified) | 851 s
20 | C=Cc1ccc(Cn2nc3ccc(S(=O)(=O)N4CCOCC4)cn3c2=O)cc1 | 864 s
21 | Cc1nnc2ccc(-c3noc(-c4ccc(Cl)cc4)n3)cn12 | 959 s
22 | Cc1nc2cc(-c3noc(-c4ccsc4)n3)ccc2o1 | 977 s
23 | Cc1noc(C)c1Cc1c(C(=O)NCC23CCCC=C2NC(=O)CC3)noc1C (stereo unspecified) | 726 s
24 | CC1CCc2c(sc3nc(CCC(=O)NCCc4c[nH]c5ccccc45)[nH]c(=O)c23)C1 (stereo unspecified) | 898 s
25 | Cn1c(=O)c2c(nc3n(-c4ccccc4N)c(-c4ccc(Cl)cc4)cn23)n(C)c1=O | 883 s
26 | COc1ccc(CNC(=O)N2CC(Oc3ccc(-c4nc(C)no4)cc3)C2)cc1 | 825 s
27 | CCc1c(C2CCN(C(=O)c3ccc(OC)nc3)CC2)noc1N | 663 s
28 | O=C(NCCn1ncccc1=O)c1cccc(C(F)(F)F)c1 | 646 s
29 | COCc1nncn1C1CCN(S(=O)(=O)c2ccccc2C(F)(F)F)CC1 | 725 s
30 | COc1ccc(-c2nnc(N3CCC(C(=O)N4CCC5(CC4)OCCO5)CC3)o2)cc1 | 704 s
31 | COc1cccc(OC)c1OCCNCC1CSc2ccccc2O1 (stereo unspecified) | 815 s

More lines, now with the values ahead:

Row | RP-LC retention time | Structure (SMILES)
32 | 593 s | COc1ccccc1-c1cnn2c(Nc3ccc(NC(C)=O)cc3)cc(C)nc12
33 | 672 s | O=C(NC1CCN(c2cc(-c3cccs3)[nH]n2)C1)c1cccc2[nH]ccc12 (stereo unspecified)
34 | 1250 s | Cc1ccc(NC(=O)c2cc(C(C)C)n3nccc3n2)cc1C
35 | 713 s | CCCn1c(C2CCN(C(=O)Nc3cccc(C)c3)C2)nc2cccnc21 (stereo unspecified)
36 | 561 s | COCCNC(=O)CN1CCN(c2cc(C(=O)O)c3cc(NC(=O)C(C)(C)C)ccc3n2)CC1
37 | 605 s | CSc1ccc(-c2nc3cnccn3c2Nc2cccc(C(=O)NCCN(C)C)c2)cc1
38 | 704 s | CSc1ccc(-c2nc3cnccn3c2Nc2cccc(C(=O)N3CCOCC3)c2)cc1
39 | 866 s | COc1cc(=O)n(-c2ccccc2)nc1C(=O)N1c2ccc(F)cc2CCC1C (stereo unspecified)
40 | 1090 s | COc1ccc(CNC(=O)CSc2cc(N3CCN(c4ccc(OC)cc4)CC3)ncn2)cc1
41 | 732 s | COc1cc(OC)cc(C(=O)N2C[C@@H]3C[C@H]2C[C@@H]3NC(=O)c2ccccc2)c1
42 | 1040 s | O=C(c1ccccc1F)N1CCN(c2nc(-c3ccc(Cl)cc3)no2)CC1
43 | 696 s | COc1ccccc1NC(=O)Cn1nc2c(N3CCCCCC3)nccn2c1=O
44 | 674 s | Cc1cc(=O)n(CC(=O)N2CCN(c3ccc(F)cc3)CC2)c(N2CCOCC2)n1
45 | 823 s | COc1ccc(NC(=O)N2CCN(Cc3nc4cc(-c5ccccc5)ccc4o3)CC2)cc1
46 | 822 s | COc1ccccc1CCC(=O)Nc1ccc2c(c1)Sc1ncccc1C(=O)N2C
47 | 676 s | COc1cc(-c2cc(C(=O)O)c3cc4c(cc3n2)OCCO4)cc(OC)c1OC
48 | 1140 s | O/N=C(/c1ccccc1)c1ccc2c3c(cccc13)CC2
49 | 1200 s | COc1ccc(NC(=O)c2cc(C(C)C)n(-c3nc4ccccc4s3)n2)cc1OC

Row | RP-LC retention time | Structure (SMILES)
50 | 612 s | CN(C)C(=O)CN1CCN(c2cc(C(=O)O)c3cc(NC(=O)c4cccc(Cl)c4)ccc3n2)CC1
51 | 723 s | CN1CCn2cc(S(=O)(=O)Nc3ccc(Cl)cc3F)cc2C1=O
52 | 683 s | O=C(CSCc1ccccc1)NCCNC(=O)c1ccc(NC(=O)C2CC2)cc1
53 | 912 s | O=C(NCc1csc(-c2ccccc2)n1)C1CCN(S(=O)(=O)c2cccc(F)c2)CC1
54 | 666 s | COc1ccccc1N1CCN(C(=O)c2cc(NC(=O)C(C)C)cc3nc(C)ccc23)CC1
55 | 756 s | CCOc1ncccc1CNC(=O)c1ccc2cc[nH]c2c1
56 | 634 s | Fc1cccc(-c2nc(-c3ccc4c(c3)ncn4CCN3CCCC3)no2)c1
57 | 1010 s | Cc1cc2cc(CNC(=O)C(=O)c3c(C)[nH]c4ccccc34)ccc2[nH]1
58 | 884 s | Cc1ccc(NC(=O)Cc2csc3nc(-c4ccc(C)c(C)c4)cn23)cc1
59 | 953 s | Cn1c(=O)c(N2CCC(NC(=O)Nc3ccccc3C(F)(F)F)CC2)nc2ccccc21
60 | 695 s | CC(C)c1ccc(-n2nc(N3CCN(C(=O)CCC(=O)N4CCOCC4)CC3)ccc2=O)cc1
61 | 690 s | Cc1cc2[nH]c(=O)[nH]c2cc1S(=O)(=O)Nc1cccc(Cl)c1
62 | 829 s | COc1ccc(-n2ccnc(NC(=O)Nc3ccccc3)c2=O)cc1OC
63 | 607 s | Cc1ccccc1NC(=O)CN1C(=O)C2CCCCN2c2ccc(S(=O)(=O)N(C)C)cc21 (stereo unspecified)
64 | 590 s | Cc1ccc2c(Nc3ccc(S(N)(=O)=O)cc3)c(C(=O)N3CCCCC3C)cnc2n1 (stereo unspecified)
65 | 779 s | Cc1c(Cl)cccc1NC(=O)CN1C(=O)NC2(CCCCC2)C1=O
66 | 623 s | CCc1nnc2nc(N3CCN(C(=O)Cc4cc(OC)cc(OC)c4)CC3)cc(C)n12
